Measured values taken from patent publication US20240409585A1, “MACROCYCLIC IMMUNOMODULATORS” (priority 2021, published 2024).
Numbered stars: 1 amine (or outer) side, 2 acyl side, 3 side chain; on linkers, the order of the positions; unused ones are H or OH. Bridge positions count the residues as written; N and C are the ends. Square brackets hold non-standard residues; d marks the D form. Peptide text beside a SMILES is read from it. * marks the point of attachment. Phe(4-COOH) = N[C@@H](Cc1ccc(C(=O)O)cc1)C(=O)O; Bip = N[C@@H](Cc1ccc(-c2ccccc2)cc1)C(=O)O; Phe(3-Me) = Cc1cccc(C[C@H](N)C(=O)O)c1; βAsp = O=C(O)[C@H](CC(=O)[*:2])N[*:1]; aIle = CC[C@@H](C)[C@H](N)C(=O)O; 4Pal = N[C@@H](Cc1ccncc1)C(=O)O; Cha = N[C@@H](CC1CCCCC1)C(=O)O; Cit = NC(=O)NCCC[C@H](N)C(=O)O; Carboxymethyl = O=C(O)C*; NMeA = CN[C@@H](C)C(=O)O; Orn = NCCC[C@H](N)C(=O)O; Pra = C#CC[C@H](N)C(=O)O; Dab = NCC[C@H](N)C(=O)O; Dap = NC[C@H](N)C(=O)O

These compounds were tested against T1, PE-labeled human PD-L1-Ig binding to Jurkat cell line over-expressing human PD-1 (Jurkat-PD-1) (Homo sapiens, UniProt Q15116) (assay: Jurkat-PD-1 Cell Binding High-Content Screening Assay (CBA): Method 1). Conditions: Jurkat-hPD-1 cells, PE-labeled PD-L1-Ig 20 nM final; read-out: Jurkat HPDL1 PD1 IC50 (uM) (Method 1).
T1 construct: expressed in transfected cells; host or cells: Jurkat
T1 sequence (Q15116 25-288): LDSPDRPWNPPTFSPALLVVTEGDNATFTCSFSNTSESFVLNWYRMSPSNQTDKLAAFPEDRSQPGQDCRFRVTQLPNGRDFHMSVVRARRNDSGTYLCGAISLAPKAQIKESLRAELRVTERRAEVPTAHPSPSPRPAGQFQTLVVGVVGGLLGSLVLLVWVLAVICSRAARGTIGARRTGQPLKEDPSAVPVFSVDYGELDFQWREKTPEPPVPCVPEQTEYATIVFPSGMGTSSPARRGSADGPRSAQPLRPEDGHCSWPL

SMILES	IC50
CC[C@@H](C)[C@@H]1NC(=O)[C@H](Cc2ccc(-c3ccccc3)cc2)NC(=O)[C@H](CC(C)C)NC(=O)[C@H](Cc2cccc(C)c2)NC(=O)[C@H](CC(=O)O)NC(=O)[C@H](Cc2ccc(OCC(=O)O)cc2)NC(=O)[C@H](CN)NC(=O)CSC[C@@H](C(N)=O)NC(=O)[C@H](CO)NC(=O)[C@H](C(C)C)NC(=O)[C@H](CC(C)C)NC(=O)[C@H](CC(N)=O)NC(=O)[C@@H](CC(C)C)NC(=O)[C@H](C)N(C)C1=O [Compound 1640] ({CH2CO}-[Dap]Y(Carboxymethyl)D[Phe(3-Me)]L[Bip][aIle][NMeA][dL]NLVSC-NH2; thioether N-14)	0.1 µM
Cc1cccc(C[C@@H]2NC(=O)[C@H](CC(=O)O)NC(=O)[C@H](Cc3ccc(O)cc3)NC(=O)[C@H](CC(N)=O)NC(=O)CSC[C@@H](C(N)=O)NC(=O)[C@H]([C@@H](C)O)NC(=O)[C@H](C(C)C)NC(=O)[C@H](CC(C)C)NC(=O)[C@H](CCN)NC(=O)[C@@H](CC(C)C)NC(=O)[C@H](C)N(C)C(=O)[C@H](CCCNC(N)=O)NC(=O)[C@H](Cc3ccc(-c4ccccc4)cc3)NC(=O)[C@H](C(C)C)NC2=O)c1 [Compound 1641] ({CH2CO}-NYD[Phe(3-Me)]V[Bip][Cit][NMeA][dL][Dab]LVTC-NH2; thioether N-14)	0.14 µM
Cc1cccc(C[C@@H]2NC(=O)[C@H](CC(=O)O)NC(=O)[C@H](Cc3ccncc3)NC(=O)[C@H](Cc3ccc(OCC(=O)O)cc3)NC(=O)CSC[C@@H](C(N)=O)NC(=O)[C@H](CO)NC(=O)[C@H](C(C)C)NC(=O)[C@H](CC(C)C)NC(=O)[C@H](CC(N)=O)NC(=O)[C@@H](CC(C)C)NC(=O)[C@H](C)N(C)C(=O)[C@H](CCCNC(N)=O)NC(=O)[C@H](Cc3ccc(-c4ccccc4)cc3)NC(=O)[C@H](CC(C)C)NC2=O)c1 [Compound 1642] ({CH2CO}-Y(Carboxymethyl)[4Pal]D[Phe(3-Me)]L[Bip][Cit][NMeA][dL]NLVSC-NH2; thioether N-14)	0.18 µM
Cc1cccc(C[C@@H]2NC(=O)[C@H](CC(=O)O)NC(=O)[C@H](Cc3ccc(C(=O)O)cc3)NC(=O)[C@H](Cc3ccc(OCC(=O)O)cc3)NC(=O)CSC[C@@H](C(N)=O)NC(=O)[C@H](CO)NC(=O)[C@H](C(C)C)NC(=O)[C@H](CC(C)C)NC(=O)[C@H](CC(N)=O)NC(=O)[C@@H](CC(C)C)NC(=O)[C@H](C)N(C)C(=O)[C@H](CCCNC(N)=O)NC(=O)[C@H](Cc3ccc(-c4ccccc4)cc3)NC(=O)[C@H](CC(C)C)NC2=O)c1 [Compound 1643] ({CH2CO}-Y(Carboxymethyl)[Phe(4-COOH)]D[Phe(3-Me)]L[Bip][Cit][NMeA][dL]NLVSC-NH2; thioether N-14)	0.08 µM
Cc1cccc(C[C@@H]2NC(=O)[C@H](CC(=O)O)NC(=O)[C@H](Cc3ccc(OCC(=O)O)cc3)NC(=O)[C@H](CN)NC(=O)CSC[C@@H](C(N)=O)NC(=O)[C@H](CCC(N)=O)NC(=O)[C@H](C(C)C)NC(=O)[C@H](CC3CCCCC3)NC(=O)[C@H](CCN)NC(=O)[C@@H](CC(C)C)NC(=O)[C@H](C)N(C)C(=O)[C@H](Cc3ccc(OCC(=O)O)cc3)NC(=O)[C@H](Cc3ccc(-c4ccccc4)cc3)NC(=O)[C@H](Cc3ccc(OCC(=O)O)cc3)NC2=O)c1 [Compound 1649] ({CH2CO}-[Dap]Y(Carboxymethyl)D[Phe(3-Me)]Y(Carboxymethyl)[Bip]Y(Carboxymethyl)[NMeA][dL][Dab][Cha]VQC-NH2; thioether N-14)	0.1 µM

Stronger by IC50, values ahead:

IC50	SMILES
0.06 µM	Cc1cccc(C[C@@H]2NC(=O)[C@H](CC(=O)O)NC(=O)[C@H](Cc3ccc(OCC(=O)O)cc3)NC(=O)[C@H](CN)NC(=O)CSC[C@@H](C(N)=O)NC(=O)[C@H](CO)NC(=O)[C@H](C(C)C)NC(=O)[C@H](CC(C)C)NC(=O)[C@H](CC(N)=O)NC(=O)[C@@H](CC(C)C)NC(=O)[C@H](C)N(C)C(=O)[C@H](CCCNC(N)=O)NC(=O)[C@H](Cc3ccc(-c4ccccc4)cc3)NC(=O)[C@H](CC(C)C)NC2=O)c1 [Compound 1644] ({CH2CO}-[Dap]Y(Carboxymethyl)D[Phe(3-Me)]L[Bip][Cit][NMeA][dL]NLVSC-NH2; thioether N-14)
0.01 µM	C#CC[C@H](NC(=O)C[C@H](NC(=O)[C@@H]1CSCC(=O)N[C@@H](Cc2ccc(OCC(=O)O)cc2)C(=O)N[C@@H](Cc2ccncc2)C(=O)N[C@@H](CC(=O)O)C(=O)N[C@@H](Cc2c[nH]c3ccccc23)C(=O)N[C@@H](CC(C)C)C(=O)N[C@@H](Cc2ccc(-c3ccccc3)cc2)C(=O)N[C@@H](C(C)C)C(=O)N(C)[C@@H](C)C(=O)N[C@H](CC(C)C)C(=O)N[C@@H](CCN)C(=O)N[C@@H](CC2CCCCC2)C(=O)N[C@@H](C(C)C)C(=O)N[C@@H](CO)C(=O)N1)C(=O)O)C(N)=O [Compound 1645] ({CH2CO}-Y(Carboxymethyl)[4Pal]DWL[Bip]V[NMeA][dL][Dab][Cha]VSC[βAsp][Pra]-NH2; thioether N-14)
0.03 µM	Cc1cccc(C[C@@H]2NC(=O)[C@H](CC(=O)O)NC(=O)[C@H](Cc3ccc(OCC(=O)O)cc3)NC(=O)[C@H](CN)NC(=O)CSC[C@@H](C(N)=O)NC(=O)[C@H](CCCN)NC(=O)[C@H](C(C)C)NC(=O)[C@H](CC3CCCCC3)NC(=O)[C@H](CCN)NC(=O)[C@@H](CC(C)C)NC(=O)[C@H](C)N(C)C(=O)[C@H](Cc3ccc(OCC(=O)O)cc3)NC(=O)[C@H](Cc3ccc(-c4ccccc4)cc3)NC(=O)[C@H](Cc3ccc(OCC(=O)O)cc3)NC2=O)c1 [Compound 1646] ({CH2CO}-[Dap]Y(Carboxymethyl)D[Phe(3-Me)]Y(Carboxymethyl)[Bip]Y(Carboxymethyl)[NMeA][dL][Dab][Cha]V[Orn]C-NH2; thioether N-14)
0.04 µM	Cc1cccc(C[C@@H]2NC(=O)[C@H](CC(=O)O)NC(=O)[C@H](Cc3ccc(OCC(=O)O)cc3)NC(=O)[C@H](CN)NC(=O)CSC[C@@H](C(N)=O)NC(=O)[C@H](CC(N)=O)NC(=O)[C@H](C(C)C)NC(=O)[C@H](CC3CCCCC3)NC(=O)[C@H](CCN)NC(=O)[C@@H](CC(C)C)NC(=O)[C@H](C)N(C)C(=O)[C@H](Cc3ccc(OCC(=O)O)cc3)NC(=O)[C@H](Cc3ccc(-c4ccccc4)cc3)NC(=O)[C@H](Cc3ccc(OCC(=O)O)cc3)NC2=O)c1 [Compound 1647] ({CH2CO}-[Dap]Y(Carboxymethyl)D[Phe(3-Me)]Y(Carboxymethyl)[Bip]Y(Carboxymethyl)[NMeA][dL][Dab][Cha]VNC-NH2; thioether N-14)
0.03 µM	Cc1cccc(C[C@@H]2NC(=O)[C@H](CC(=O)O)NC(=O)[C@H](Cc3ccc(OCC(=O)O)cc3)NC(=O)[C@H](CN)NC(=O)CSC[C@@H](C(N)=O)NC(=O)[C@H](CC(N)=O)NC(=O)[C@H](C(C)C)NC(=O)[C@H](CC3CCCCC3)NC(=O)[C@H](CCN)NC(=O)[C@@H](CC(C)C)NC(=O)[C@H](C)N(C)C(=O)[C@H](Cc3ccc(OCC(=O)O)cc3)NC(=O)[C@H](Cc3ccc(-c4ccccc4)cc3)NC(=O)[C@H](Cc3ccc(OCC(=O)O)cc3)NC2=O)c1 [Compound 1648] ({CH2CO}-[Dap]Y(Carboxymethyl)D[Phe(3-Me)]Y(Carboxymethyl)[Bip]Y(Carboxymethyl)[NMeA][dL][Dab][Cha]VNC-NH2; thioether N-14)
